The values that follow come from paper PMC7827406, “Structure–Activity Relationship (SAR) Study of Spautin-1 to Entail the Discovery of Novel NEK4 Inhibitors” (International Journal of Molecular Sciences, 2021).

What all share (assay): biochemical
What all share (set-up): Eurofins KinaseProfiler full panel at Km ATP, residual kinase activity (%) relative to DMSO

The target of one test is EGFR(T790M,L858R)(h) (Homo sapiens, UniProt P00533, L858R/T790M). The method in brief: (§1)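 Radiometric kinase activity assays were run with ATP at Km and compounds at 10 µM, and remaining activity (%) was reported. A separate competitive binding screen measured DNA-tagged kinase displaced from immobilized active-site ligands by qPCR, giving percent kinase still bound at 10 µM compound in DMSO.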
EGFR(T790M,L858R)(h), sequence (P00533 whole entry T790M/L858R): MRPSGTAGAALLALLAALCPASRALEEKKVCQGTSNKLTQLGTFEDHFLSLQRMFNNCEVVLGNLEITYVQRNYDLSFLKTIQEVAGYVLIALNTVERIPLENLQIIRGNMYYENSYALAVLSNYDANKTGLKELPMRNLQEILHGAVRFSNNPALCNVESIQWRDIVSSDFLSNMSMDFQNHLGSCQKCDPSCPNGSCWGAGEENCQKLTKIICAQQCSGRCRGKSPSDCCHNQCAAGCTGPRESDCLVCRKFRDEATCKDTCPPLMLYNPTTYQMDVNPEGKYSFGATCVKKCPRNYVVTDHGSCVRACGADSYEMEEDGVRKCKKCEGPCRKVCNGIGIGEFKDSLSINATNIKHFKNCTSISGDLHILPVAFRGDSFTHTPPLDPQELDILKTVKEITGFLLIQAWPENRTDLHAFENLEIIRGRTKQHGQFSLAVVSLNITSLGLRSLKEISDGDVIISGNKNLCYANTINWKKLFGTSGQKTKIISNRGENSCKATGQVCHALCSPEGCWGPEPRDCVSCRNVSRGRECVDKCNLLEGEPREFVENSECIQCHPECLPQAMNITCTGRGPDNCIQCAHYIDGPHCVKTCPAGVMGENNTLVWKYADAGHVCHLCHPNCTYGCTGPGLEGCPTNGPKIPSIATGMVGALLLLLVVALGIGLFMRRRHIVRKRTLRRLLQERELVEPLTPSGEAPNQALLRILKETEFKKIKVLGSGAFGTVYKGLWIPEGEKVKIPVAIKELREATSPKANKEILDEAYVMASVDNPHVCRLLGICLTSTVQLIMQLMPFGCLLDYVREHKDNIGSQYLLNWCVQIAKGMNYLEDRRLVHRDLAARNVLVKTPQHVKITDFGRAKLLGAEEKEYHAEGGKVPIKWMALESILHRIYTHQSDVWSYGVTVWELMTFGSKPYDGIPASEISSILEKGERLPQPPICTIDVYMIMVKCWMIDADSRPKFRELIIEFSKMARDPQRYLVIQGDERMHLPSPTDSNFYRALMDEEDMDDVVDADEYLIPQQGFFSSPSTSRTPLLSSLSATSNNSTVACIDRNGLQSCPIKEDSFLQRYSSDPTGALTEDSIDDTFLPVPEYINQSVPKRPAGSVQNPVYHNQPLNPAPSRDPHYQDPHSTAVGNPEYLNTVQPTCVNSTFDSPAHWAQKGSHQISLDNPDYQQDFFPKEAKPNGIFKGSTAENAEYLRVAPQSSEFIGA

The next test addresses LTK(h) (Homo sapiens, UniProt P29376). The method in brief:
as §1

The target in the next test is T1, JNK3(h) (Homo sapiens, UniProt P53779).
T1 construct: gene MAPK10
T1 sequence (P53779 whole entry): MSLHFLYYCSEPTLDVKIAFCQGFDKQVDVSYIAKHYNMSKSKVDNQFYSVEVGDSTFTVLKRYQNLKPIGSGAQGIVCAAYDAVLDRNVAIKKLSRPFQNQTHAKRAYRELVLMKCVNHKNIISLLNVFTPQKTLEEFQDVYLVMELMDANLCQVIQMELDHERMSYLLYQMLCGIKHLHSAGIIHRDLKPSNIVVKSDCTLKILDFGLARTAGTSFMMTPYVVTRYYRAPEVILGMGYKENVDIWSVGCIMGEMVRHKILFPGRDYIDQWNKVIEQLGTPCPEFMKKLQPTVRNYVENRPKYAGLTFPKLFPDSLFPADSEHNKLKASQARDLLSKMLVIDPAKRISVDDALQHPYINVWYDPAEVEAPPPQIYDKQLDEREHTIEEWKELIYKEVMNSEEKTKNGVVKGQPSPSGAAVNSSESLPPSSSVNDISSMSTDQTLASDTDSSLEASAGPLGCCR
A digest of the protocol:
as §1

The next test deals with T2, ALK6(h) (Homo sapiens, UniProt O00238).
T2 construct: gene BMPR1B
A digest of the protocol: as §1

In a further test the target is T3, MARK4(h) (Homo sapiens, UniProt Q96L34).
T3 sequence (Q96L34 1-752): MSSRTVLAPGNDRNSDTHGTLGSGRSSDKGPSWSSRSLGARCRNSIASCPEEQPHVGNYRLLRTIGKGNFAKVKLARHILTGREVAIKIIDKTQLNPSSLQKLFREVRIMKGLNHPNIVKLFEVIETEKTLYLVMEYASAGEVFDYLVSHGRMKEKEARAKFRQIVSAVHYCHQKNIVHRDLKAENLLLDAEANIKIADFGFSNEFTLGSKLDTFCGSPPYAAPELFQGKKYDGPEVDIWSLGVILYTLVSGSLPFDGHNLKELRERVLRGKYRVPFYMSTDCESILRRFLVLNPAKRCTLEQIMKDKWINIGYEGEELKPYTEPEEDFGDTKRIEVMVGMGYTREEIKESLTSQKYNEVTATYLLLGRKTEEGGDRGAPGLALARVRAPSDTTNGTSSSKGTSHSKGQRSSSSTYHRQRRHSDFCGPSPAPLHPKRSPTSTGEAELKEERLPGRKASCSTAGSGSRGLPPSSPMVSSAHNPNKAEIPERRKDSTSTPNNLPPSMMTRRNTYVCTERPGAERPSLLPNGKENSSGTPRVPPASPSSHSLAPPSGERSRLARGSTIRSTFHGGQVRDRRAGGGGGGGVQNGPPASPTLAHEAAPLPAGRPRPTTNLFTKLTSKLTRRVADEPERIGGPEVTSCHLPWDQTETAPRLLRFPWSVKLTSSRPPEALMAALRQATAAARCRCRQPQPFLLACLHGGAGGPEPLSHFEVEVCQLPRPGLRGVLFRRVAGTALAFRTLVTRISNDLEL
A digest of the protocol:
as §1

For a further test, the target named is T4, MSK2(h) (Homo sapiens, UniProt O75676).
T4 construct: gene RPS6KA4
The method in brief:
as §1

The target in another test is T5, PKBα(h) (Homo sapiens, UniProt P31749).
T5 construct: gene AKT1
T5 sequence (P31749 whole entry): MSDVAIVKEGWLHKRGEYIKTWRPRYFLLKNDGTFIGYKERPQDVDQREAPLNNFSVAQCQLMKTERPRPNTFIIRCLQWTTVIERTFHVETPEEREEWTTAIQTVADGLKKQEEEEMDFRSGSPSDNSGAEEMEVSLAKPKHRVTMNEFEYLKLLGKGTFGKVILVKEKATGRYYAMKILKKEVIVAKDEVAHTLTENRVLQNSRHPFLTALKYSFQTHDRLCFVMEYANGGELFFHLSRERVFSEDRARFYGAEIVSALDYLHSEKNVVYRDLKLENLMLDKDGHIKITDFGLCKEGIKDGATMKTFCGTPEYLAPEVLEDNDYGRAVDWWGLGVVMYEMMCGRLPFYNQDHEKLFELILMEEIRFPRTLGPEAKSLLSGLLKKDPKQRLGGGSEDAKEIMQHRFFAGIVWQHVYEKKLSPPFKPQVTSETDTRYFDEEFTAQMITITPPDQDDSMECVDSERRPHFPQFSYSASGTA
The method in brief: as §1

A further test concerns the target STK16(h) (Homo sapiens, UniProt O75716). The method in brief: as §1
The target of another test is ALK(h) (Homo sapiens, UniProt Q9UM73). The method in brief:
as §1

Another test concerns the target T6, NDR1(h) (Homo sapiens, UniProt Q15208).
T6 construct: gene STK38
The method in brief: as §1

The target in a further test is T7, ROCK-II(r) (Rattus norvegicus, UniProt Q62868).
T7 construct: gene Rock2
The method in brief: as §1

Another test concerns the target T8, ZAK(h) (Homo sapiens, UniProt Q9NYL2).
T8 construct: gene MAP3K20
A digest of the protocol: as §1

[1] abbreviates: read-out: Residual activity (%) Spautin-1 5aa.
Setting [2] is: read-out: Residual activity (%) 5as.
Setting [3] is: read-out: Residual activity (%) 5at.
The mark [4] stands for this setting: read-out: Residual activity (%) 5ay.

Read-outs that look alike come from different tables or passages of the source.

T6 sequence (Q15208 whole entry): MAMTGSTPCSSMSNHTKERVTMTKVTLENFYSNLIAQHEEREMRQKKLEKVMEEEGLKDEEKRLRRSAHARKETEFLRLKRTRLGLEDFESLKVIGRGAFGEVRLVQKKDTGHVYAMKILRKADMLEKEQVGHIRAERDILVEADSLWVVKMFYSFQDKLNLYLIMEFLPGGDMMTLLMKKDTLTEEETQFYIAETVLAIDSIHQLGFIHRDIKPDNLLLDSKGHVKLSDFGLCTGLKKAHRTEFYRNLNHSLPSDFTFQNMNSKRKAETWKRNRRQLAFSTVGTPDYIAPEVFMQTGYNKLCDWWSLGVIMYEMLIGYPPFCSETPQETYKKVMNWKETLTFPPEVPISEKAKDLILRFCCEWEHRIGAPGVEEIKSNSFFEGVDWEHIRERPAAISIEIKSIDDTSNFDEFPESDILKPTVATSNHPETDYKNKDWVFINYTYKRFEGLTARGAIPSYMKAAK
T8 sequence (Q9NYL2 whole entry): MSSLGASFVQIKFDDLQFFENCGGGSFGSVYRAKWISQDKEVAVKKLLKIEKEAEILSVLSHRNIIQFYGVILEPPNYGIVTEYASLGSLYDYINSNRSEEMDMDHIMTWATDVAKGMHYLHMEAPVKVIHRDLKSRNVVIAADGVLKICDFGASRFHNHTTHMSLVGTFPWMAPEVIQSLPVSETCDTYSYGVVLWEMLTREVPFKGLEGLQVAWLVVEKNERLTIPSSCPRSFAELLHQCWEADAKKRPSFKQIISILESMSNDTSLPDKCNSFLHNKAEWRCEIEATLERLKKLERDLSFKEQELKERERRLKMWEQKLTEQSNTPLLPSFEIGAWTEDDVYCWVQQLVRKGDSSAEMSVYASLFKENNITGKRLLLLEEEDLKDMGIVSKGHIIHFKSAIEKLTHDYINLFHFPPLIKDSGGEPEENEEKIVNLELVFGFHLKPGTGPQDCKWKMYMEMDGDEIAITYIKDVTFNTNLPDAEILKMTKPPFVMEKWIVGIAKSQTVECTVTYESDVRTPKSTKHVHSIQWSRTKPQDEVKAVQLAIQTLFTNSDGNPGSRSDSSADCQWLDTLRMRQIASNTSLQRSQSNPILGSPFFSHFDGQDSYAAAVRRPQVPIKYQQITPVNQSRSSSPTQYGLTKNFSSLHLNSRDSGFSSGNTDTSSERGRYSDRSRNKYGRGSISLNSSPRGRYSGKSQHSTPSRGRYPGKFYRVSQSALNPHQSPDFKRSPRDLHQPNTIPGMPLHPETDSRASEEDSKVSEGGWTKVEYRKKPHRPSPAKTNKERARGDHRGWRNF
STK16(h), sequence (O75716 whole entry): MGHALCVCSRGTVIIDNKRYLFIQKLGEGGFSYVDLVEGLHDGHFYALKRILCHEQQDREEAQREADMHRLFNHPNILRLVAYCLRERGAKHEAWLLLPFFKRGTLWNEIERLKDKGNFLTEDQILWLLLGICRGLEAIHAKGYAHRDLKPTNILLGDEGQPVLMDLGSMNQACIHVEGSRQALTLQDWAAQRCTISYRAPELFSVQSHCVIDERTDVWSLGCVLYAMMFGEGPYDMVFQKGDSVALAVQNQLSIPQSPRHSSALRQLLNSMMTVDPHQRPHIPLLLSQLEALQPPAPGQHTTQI
LTK(h), sequence (P29376 whole entry): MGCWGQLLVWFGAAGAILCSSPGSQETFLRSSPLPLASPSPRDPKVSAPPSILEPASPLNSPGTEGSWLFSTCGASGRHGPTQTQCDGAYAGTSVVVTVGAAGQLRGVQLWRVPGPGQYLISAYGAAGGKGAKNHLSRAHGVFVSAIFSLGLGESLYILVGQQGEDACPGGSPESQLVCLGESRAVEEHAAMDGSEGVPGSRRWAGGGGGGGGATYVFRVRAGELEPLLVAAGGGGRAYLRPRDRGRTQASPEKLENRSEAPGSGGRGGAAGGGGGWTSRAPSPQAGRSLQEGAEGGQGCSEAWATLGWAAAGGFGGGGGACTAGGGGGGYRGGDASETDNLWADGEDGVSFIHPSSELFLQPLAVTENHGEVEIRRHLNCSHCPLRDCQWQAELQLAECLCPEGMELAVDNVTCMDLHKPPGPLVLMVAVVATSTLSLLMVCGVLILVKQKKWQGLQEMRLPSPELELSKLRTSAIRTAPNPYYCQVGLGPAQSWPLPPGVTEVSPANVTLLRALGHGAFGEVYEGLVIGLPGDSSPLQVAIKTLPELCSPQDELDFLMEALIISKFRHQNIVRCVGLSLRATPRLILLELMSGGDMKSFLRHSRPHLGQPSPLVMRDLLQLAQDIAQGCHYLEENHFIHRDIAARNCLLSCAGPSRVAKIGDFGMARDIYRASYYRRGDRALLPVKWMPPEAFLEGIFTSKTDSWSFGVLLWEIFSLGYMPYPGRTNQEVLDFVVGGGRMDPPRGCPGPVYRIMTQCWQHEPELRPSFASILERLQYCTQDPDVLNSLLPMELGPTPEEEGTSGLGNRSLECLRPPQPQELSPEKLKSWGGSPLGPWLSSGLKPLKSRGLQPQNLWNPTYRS

For the molecule `Fc1ccc(CNc2ncnc3ccc(F)cc23)cc1` [5aa, 6-Fluoro-N-(4-fluorobenzyl)-4-Quinazolinamine], the remaining activity at 10 µM stood at 96% on EGFR(T790M,L858R)(h) (setting [1]); 88% on LTK(h) (setting [1]); 90% on JNK3(h) (setting [1]); 94% on ALK6(h) (setting [1]); 107% at MARK4(h) (setting [1]); 91% at MSK2(h) (setting [1]). In addition, the remaining activity at 10 µM is 86% at PKBα(h) (setting [1]); 88% at STK16(h) (setting [1]); 82% on ALK(h) (setting [1]); 108% on NDR1(h) (setting [1]); 90% on ROCK-II(r) (setting [1]); 70% at ZAK(h) (setting [1]).

For the molecule `Fc1ccc(CCNc2ncnc3ccc(F)cc23)cc1` [5as, 6-Fluoro-N-[2-(4-Fluorophenyl)Ethyl]-4-Quinazolinamine], the remaining activity at 10 µM turned out to be 93% at EGFR(T790M,L858R)(h) (setting [2]); 76% at LTK(h) (setting [2]); 98% on JNK3(h) (setting [2]); 86% at ALK6(h) (setting [2]); 104% at MARK4(h) (setting [2]); 96% on MSK2(h) (setting [2]). The remaining activity at 10 µM at PKBα(h) (setting [2]) amounted to 98%; on STK16(h) (setting [2]), 75%; at ALK(h) (setting [2]) it was 59%; on NDR1(h) (setting [2]), 96%; on ROCK-II(r) (setting [2]) it was 105%; on ZAK(h) (setting [2]) it was 61%.

With `Fc1ccc2ncnc(NCCc3ccc(Cl)cc3)c2c1` [5at, N-[2-(4-Chlorophenyl)Ethyl]-6-Fluoro-4-Quinazolinamine], the remaining activity at 10 µM at EGFR(T790M,L858R)(h) (setting [3]) turned out to be 85%; on LTK(h) (setting [3]) it was 74%; on JNK3(h) (setting [3]), 107%; at ALK6(h) (setting [3]) it was 92%; on MARK4(h) (setting [3]), 105%; at MSK2(h) (setting [3]) it was 97%. In addition, the remaining activity at 10 µM at PKBα(h) (setting [3]) came to 89%; on STK16(h) (setting [3]), 78%; at ALK(h) (setting [3]), 86%; on NDR1(h) (setting [3]) it was 89%; on ROCK-II(r) (setting [3]) it was 103%; at ZAK(h) (setting [3]) it was 72%.

With `COc1ccc2ncnc(Nc3cccc(F)c3)c2c1` [5ay, N-(3-Fluorophenyl)-6-Methoxy-4-Quinazolinamine], the remaining activity at 10 µM was 69% on EGFR(T790M,L858R)(h) (setting [4]); 76% at LTK(h) (setting [4]); 90% at JNK3(h) (setting [4]); 87% at ALK6(h) (setting [4]); 100% on MARK4(h) (setting [4]); 88% at MSK2(h) (setting [4]). Further, the remaining activity at 10 µM at PKBα(h) (setting [4]) came out at 88%; on STK16(h) (setting [4]), 76%; at ALK(h) (setting [4]) it was 72%; at NDR1(h) (setting [4]), 98%; on ROCK-II(r) (setting [4]), 98%; at ZAK(h) (setting [4]), 61%.
